# Experimental data reported in US20240092779A1, “USP1 INHIBITORS AND USES THEREOF” (Zentaur Therapeutics USA Inc., priority 2022, published 2024).
# Legend:
# [1] = biological target: T1, recombinant USP1/UAF1 enzyme complex (Homo sapiens, UniProt O94782); assay: Enzyme assay: deubiquitinase fluorometric assay with ubiquitin-Rhodamine substrate; type: biochemical; details: USP1/UAF1, Ub-Rho110 substrate, 2 hours preincubation, 1 hour reaction
# T1 construct: purchased Biortus
# Description: Enzymatic inhibitory potency of the compounds was assessed in a deubiquitinase fluorometric assay using ubiquitin-Rhodamine (Ub-Rho110, R&D Systems) as substrate and the recombinant USP1/UAF1 enzyme complex (Biortus). Assays were performed in a final volume of 12 μL using black 384-well plates (Corning #4514) containing 50 mM HEPES (pH 7.5, BioRoYee), 0.5 mM EDTA, 1 mM dithiothreitol, 0.1 mg/mL bovine serum albumin, 50 nM Ub-Rhol10, 0.004 nM USP1/UAF1, and series diluted compounds from 10 μM to 0.5 nM (10 dilution steps). Assay-ready plates containing 40 nL of Echo-dispensed compound in DMSO were reconstituted with 2 μL of ddH2O, then 5 μL of USP1/UAF1 enzyme mixture was added and preincubated at room temperature for 2 hours. Enzymatic reaction was initiated by the addition of […] substrate mixture and assay allowed to proceed for 1 hour at room temperature before quenching with 3 μL of 150 mM citric acid. Fluorescence signal was detected via TECAN SPARK with excitation at 485 nm and emission at 535 nm. Data analysis was done using GraphPad Prism8 and IC50 values were obtained by 4-parameter logistic curve fitting.
# (§1) Certain compounds were tested in the assays.
# HCC1806 Ub-PCNA (USP1) = assay: USP1 Western Blot Protocol (HCC1806 Ub-PCNA); type: cell-based; details: HCC1806 cells, 4 hours
# Source text: USP1 Western Blot Protocol (HCC1806 Ub-PCNA)
# USP1 is a deubiquitinase that catalyze the hydrolysis of iso-peptide bond between ubiquitin and the substrate proteins. Inhibition of USP1 activity results in accumulation of mono-ubiquitinated substrate such as Ub-PCNA. A cell assay was set up to determine the cellular potency of USP1 compounds by monitoring the accumulation of Ub-PCNA. The signal intensity was detected by a specific Ub-PCNA antibody through Western-blot analysis.
# The assay was initiated by seeding HCC1806 cells (ATCC, CRL-2335) into 6-well plates (Corning, 3516), with a seeding density of 3×10^5 cells per well and 2 mL RPMI 1640 culture medium (Gibco, 11875119). The plates were incubated overnight at 37° C. and 5% CO2. Compounds, solubilized in DMSO (Solarbio, D8371) as 1 mM stock solution, were diluted in 4-fold steps for 5-cencentration point dose response plus a no-compound DMSO control. Diluted compounds (2 μL) were transferred into assay wells (with a final DMSO concentration of −0.1%) and the resulted assay plates incubated at 37° C. and 5% CO2 for 4 hours. After aspiration of culture medium, 100 μL of 4° C. RIPA lysis buffer (Boston BioProducts, BP-115D) supplemented with vendor recommended concentrations of protease (Roche, 4693116001) and phosphatase (Roche, 4906837001) inhibitor, was added to each well and incubated for 10 minutes on the ice. Cells were scrapped loose from the bottom of well with a scraper (Corning, 3008), transferred into a 600 μL EP tube, sonicated using Ultrasound (Qsonica, Q800R3, with 30% energy, 5-second pulse on/off cycles at 4° C., for total 2 minutes), centrifuged 13,000 rpm for 15 minutes at 4° C., and then the supernatant transferred to a new 600 μL EP tube. The total protein concentration was determined using BCA kit following vendor recommended protocol (Solarbio, PC0020-500). Loading samples were prepared by diluting the total protein concentration to 1.5 μg/μL with 5 X NuPAGE SDS loading buffer (Beyotime, P0015L) and RIPA lysis buffer, and boiling at 100° C. for 5 minutes.
# 15 μg protein from each sample was loaded onto NuPAGE® Novex 4-12% Bis-Tris Midi Gel, 26 W (Invitrogen, WG1403BOX) and electrophoresis was run at 80 V for 30 minutes and 120 V till the end using 1x NuPAGE® MOPS SDS Running Buffer (Novex, NP0001). The gel was then transferred to nitrocellulose membrane using the dry transfer system (iBlot 2 Transfer Stacks, nitrocellulose, D323001) with a program consisting of 20 V for 1 minute, 23 V for 4 minutes and 25 V for 2 minutes. After the membrane was blocked with 5% BSA (Solarbio, A8020) in 1X TBST (CST, 9997S) for 1 hour at room temperature, specific antibodies (Ubiquityl-PCNA antibody (CST, 13439) at 1:500 dilution, PCNA antibody (Santa Cruz, sc-56) at 1:1000 dilution, and GAPDH (CST, 5174) at 1:2000 dilution in 1 X TBST containing 1% BSA) were added and incubated at room temperature for 1.5 hours. After washing the Nitrocellulose membranes with 1 X TBST for 3 times, 10 minutes each time at room temperature, fluorescently labeled secondary antibodies (anti-rabbit IgG, Licor, 926-32211; anti-mouse IgG, LI-COR, 926-68070) at 1:5000 dilution in 1 X TBST containing 1% BSA were added and incubated for 1 hour at room temperature in the dark. The membranes were then rinsed with 1 X TBST and immersed in the RO water. Imaging of band intensity was acquired with Li—COR imaging system (Li—COR, Odyssey clx ES).
# Percentage of USP1 inhibition (% Vehicle) was calculated by using following equation examining Ub-PCNA upregulation:
# And IC50 was calculated using four-parameter logistic fitting program • Y=Bottom+(Top-Bottom)/(1+10 {circumflex over (()}(LogIC50−X)*Hill Slope)) • X=Log of dose or concentration
# as §1
# MDA-MB-436 cells = assay: CTG Protocol (MDA-MB-436 GI50), antiproliferative activity; type: cell-based, human; details: MDA-MB-436 cells (BRCA1 mutation), 7-day incubation, CellTiter-Glo
# Procedure, shortened: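 BRCA1-mutant MDA-MB-436 cells were seeded at 1000 cells/well in DMEM, left overnight, then exposed to a 9-point, 3-fold compound series for 7 days at 37 °C, 5% CO2. Viability was read by CellTiter-Glo luminescence. % inhibition was plotted against concentration to derive GI50.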
# T1 sequence (O94782 whole entry): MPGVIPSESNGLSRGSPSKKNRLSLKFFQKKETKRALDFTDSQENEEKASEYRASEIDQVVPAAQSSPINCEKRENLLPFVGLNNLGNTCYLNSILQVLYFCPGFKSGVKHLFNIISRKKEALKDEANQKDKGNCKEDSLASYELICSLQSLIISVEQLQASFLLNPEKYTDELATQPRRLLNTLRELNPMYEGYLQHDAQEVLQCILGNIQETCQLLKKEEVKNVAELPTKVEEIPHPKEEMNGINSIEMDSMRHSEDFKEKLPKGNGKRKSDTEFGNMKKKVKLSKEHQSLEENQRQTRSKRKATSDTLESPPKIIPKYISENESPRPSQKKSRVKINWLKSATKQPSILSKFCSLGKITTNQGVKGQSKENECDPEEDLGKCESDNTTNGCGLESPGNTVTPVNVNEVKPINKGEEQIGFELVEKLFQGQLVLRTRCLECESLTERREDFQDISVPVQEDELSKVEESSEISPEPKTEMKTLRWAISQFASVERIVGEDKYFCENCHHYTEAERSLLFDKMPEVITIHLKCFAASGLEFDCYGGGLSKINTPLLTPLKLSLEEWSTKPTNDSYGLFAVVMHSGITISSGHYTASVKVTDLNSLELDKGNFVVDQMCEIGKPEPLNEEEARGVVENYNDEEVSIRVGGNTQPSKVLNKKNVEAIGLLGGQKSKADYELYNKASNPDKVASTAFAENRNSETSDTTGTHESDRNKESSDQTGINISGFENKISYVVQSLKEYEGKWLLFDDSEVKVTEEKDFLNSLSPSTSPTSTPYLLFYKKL
# T1 sequence (Q8TAF3 whole entry partner): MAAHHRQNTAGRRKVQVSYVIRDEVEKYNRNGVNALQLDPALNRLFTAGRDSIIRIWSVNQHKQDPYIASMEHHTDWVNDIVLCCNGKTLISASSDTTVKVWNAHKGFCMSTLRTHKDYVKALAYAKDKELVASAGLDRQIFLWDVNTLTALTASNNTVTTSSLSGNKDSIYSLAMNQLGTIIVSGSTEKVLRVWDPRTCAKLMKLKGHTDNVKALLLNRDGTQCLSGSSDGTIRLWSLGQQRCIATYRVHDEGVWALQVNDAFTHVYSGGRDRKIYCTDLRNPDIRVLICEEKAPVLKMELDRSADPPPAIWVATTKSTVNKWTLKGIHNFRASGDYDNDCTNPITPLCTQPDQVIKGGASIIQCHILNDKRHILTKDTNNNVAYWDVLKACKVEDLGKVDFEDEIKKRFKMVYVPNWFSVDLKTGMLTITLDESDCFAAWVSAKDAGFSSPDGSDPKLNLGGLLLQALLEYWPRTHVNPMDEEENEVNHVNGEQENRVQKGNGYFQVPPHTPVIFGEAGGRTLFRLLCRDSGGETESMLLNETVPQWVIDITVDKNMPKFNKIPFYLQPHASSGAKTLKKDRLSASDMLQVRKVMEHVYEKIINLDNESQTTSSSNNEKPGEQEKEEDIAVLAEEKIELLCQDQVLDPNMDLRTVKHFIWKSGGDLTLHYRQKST
Structure (SMILES),IC50 [1],IC50 (HCC1806 Ub-PCNA (USP1); Homo sapiens),"GI50 (MDA-MB-436 cells; Homo sapiens, 168 h)",IC50 (HCC1806 Ub-PCNA (USP1)),GI50 (MDA-MB-436 cells)
CCn1cc(C(F)(F)F)nc1-c1ccc(Cn2c(=O)cnc3cnc(-c4c(OC)ncnc4C4CC4)nc32)cc1 [Compound I-28],0.01 to 0.1 µM,< 0.01 µM,< 0.01 µM,–,–
COc1ncnc(C2CC2)c1-c1ncc2cc(C(C)(C)O)c(=O)n(Cc3ccc(-c4nc(C(F)(F)F)cn4C)cc3)c2n1 [Compound 70],0.01 to 0.1 µM,–,–,0.01 to 0.1 µM,0.01 to 0.1 µM
"COc1cc(Cn2c(=O)ccc3cnc(-c4c(OC)ncnc4C4CC4)nc32)cc(F)c1-c1nc(C(F)(F)F)cn1C1CC1 [Compound 53, 8-({4-[1-cyclopropyl-4-(trifluoromethyl)imidazol-2-yl]-3-fluoro-5-methoxyphenyl}methyl)-2-(4-cyclopropyl-6-methoxypyrimidin-5-yl)pyrido[2,3-d]pyrimidin-7-one]",0.01 to 0.1 µM,0.01 to 0.1 µM,< 0.01 µM,–,–
"COc1ncnc(C2CC2)c1-c1ncc2ccc(=O)n(Cc3ccc(-c4cncc(C(F)(F)F)n4)cc3)c2n1 [Compound I-51, 2-(4-cyclopropyl-6-methoxypyrimidin-5-yl)-8-({4-[6-(trifluoromethyl)pyrazin-2-yl]phenyl}methyl)pyrido[2,3-d]pyrimidin-7-one]",0.1 to 1 µM,0.1 to 1 µM,0.1 to 1 µM,–,–
"CCn1cc(C(F)(F)F)nc1-c1ccc(Cn2c(=O)c(C(=O)N3CCN(C)CC3)cc3cnc(-c4c(OC)ncnc4C4CC4)nc32)cc1 [Compound I-30, 2-(4-Cyclopropyl-6-Methoxypyrimidin-5-Yl)-8-({4-[1-Ethyl-4-(Trifluoromethyl)Imidazol-2-Yl]Phenyl}Methyl)-6-(4-Methylpiperazine-1-Carbonyl)Pyrido[2,3-d]Pyrimidin-7-One]",0.01 to 0.1 µM,0.01 to 0.1 µM,0.01 to 0.1 µM,–,–
"COc1ncnc(C2CC2)c1-c1ncc2c(=O)n(C)c(=O)n(Cc3ccc(-c4nc(C(F)(F)F)cn4C(C)C)cc3)c2n1 [Compound I-26, 7-(4-cyclopropyl-6-methoxypyrimidin-5-yl)-1-({4-[1-isopropyl-4-(trifluoromethyl)imidazol-2-yl]phenyl}methyl)-3-methylpyrimido[4,5-d][1,3]diazine-2,4-dione]",0.01 to 0.1 µM,0.1 to 1 µM,0.01 to 0.1 µM,–,–
COc1ncnc(C2CC2)c1-c1ncc2cc(C3=CCN(C)CC3)c(=O)n(Cc3ccc(-c4nc(C(F)(F)F)cn4C)cc3)c2n1 [Compound 68],< 0.01 µM,–,–,0.1 to 1 µM,0.01 to 0.1 µM
"CCn1cc(C(F)(F)F)nc1-c1ccc(Cn2c(=O)c(Br)cc3cnc(-c4c(OC)ncnc4C4CC4)nc32)cc1 [Compound I-38, 6-Bromo-2-(4-Cyclopropyl-6-Methoxypyrimidin-5-Yl)-8-({4-[1-Ethyl-4-(Trifluoromethyl)Imidazol-2-Yl]Phenyl}Methyl)Pyrido[2,3-d]Pyrimidin-7-One]",0.01 to 0.1 µM,0.01 to 0.1 µM,0.01 to 0.1 µM,–,–
COc1ncnc(C2CC2)c1-c1ncc2cc(C(F)F)c(=O)n(Cc3ccc(-c4nc(C(F)(F)F)cn4C)cc3)c2n1 [Compound 77],0.01 to 0.1 µM,–,–,0.01 to 0.1 µM,0.01 to 0.1 µM
COc1ncnc(C2CC2)c1-c1ncc2cc(CN(C)C)c(=O)n(Cc3ccc(-c4nc(C(F)(F)F)cn4C)cc3)c2n1 [Compound 56],0.01 to 0.1 µM,–,–,0.1 to 1 µM,0.01 to 0.1 µM
COc1ncnc(C2CC2)c1-c1ncc2ccc(=O)n(Cc3ccc(-c4nc(C)ccc4F)cc3)c2n1 [Compound I-35],0.1 to 1 µM,0.01 to 0.1 µM,0.01 to 0.1 µM,–,–
"COc1ncnc(OC)c1-c1ncc2ccc(=O)n(Cc3ccc(-c4nc(C(F)(F)F)cn4C)cc3)c2n1 [Compound I-47, 2-(4,6-Dimethoxypyrimidin-5-Yl)-8-({4-[1-Methyl-4-(Trifluoromethyl)Imidazol-2-Yl]Phenyl}Methyl)Pyrido[2,3-d]Pyrimidin-7-One]",0.01 to 0.1 µM,0.01 to 0.1 µM,0.01 to 0.1 µM,–,–
"CC(C)n1ncc(Cl)c1-c1ncc2ccc(=O)n(Cc3ccc(-c4nc(C(F)(F)F)cn4C)cc3)c2n1 [Compound I-44, 2-(4-Chloro-2-Isopropylpyrazol-3-Yl)-8-({4-[1-Methyl-4-(Trifluoromethyl)Imidazol-2-Yl]Phenyl}Methyl)Pyrido[2,3-d]Pyrimidin-7-One]",0.01 to 0.1 µM,0.01 to 0.1 µM,0.01 to 0.1 µM,–,–
"COc1ncnc(C)c1-c1ncc2ccc(=O)n(Cc3ccc(-c4nc(C(F)(F)F)cn4C)cc3)c2n1 [Compound I-46, 2-(4-Methoxy-6-Methylpyrimidin-5-Yl)-8-({4-[1-Methyl-4-(Trifluoromethyl)Imidazol-2-Yl]Phenyl}Methyl)Pyrido[2,3-d]Pyrimidin-7-One]",0.1 to 1 µM,0.1 to 1 µM,0.1 to 1 µM,–,–
"COc1ncnc(C2CC2)c1-c1ncc2ccc(=O)n(Cc3ccc(-c4ncccc4N4CCN(C)CC4)cc3)c2n1 [Compound 85, 2-(4-cyclopropyl-6-methoxypyrimidin-5-yl)-8-({4-[3-(4-methylpiperazin-1-yl)pyridin-2-yl]phenyl}methyl)pyrido[2,3-d]pyrimidin-7-one]",0.01 to 0.1 µM,0.1 to 1 µM,0.01 to 0.1 µM,–,–
COc1ncnc(C2CC2)c1-c1ncc2cc(C(C)=O)c(=O)n(Cc3ccc(-c4nc(C(F)(F)F)cn4C)cc3)c2n1 [Compound 69],0.01 to 0.1 µM,–,–,0.01 to 0.1 µM,0.01 to 0.1 µM
"COc1ncnc(C2CC2)c1-c1ncc2ccc(=O)n(Cc3ccc(-c4nc(F)ccc4OC(C)C)cc3)c2n1 [Compound 76, 2-(4-cyclopropyl-6-methoxypyrimidin-5-yl)-8-{[4-(6-fluoro-3-isopropoxypyridin-2-yl)phenyl]methyl}pyrido[2,3-d]pyrimidin-7-one]",0.01 to 0.1 µM,0.01 to 0.1 µM,0.01 to 0.1 µM,–,–
"COc1ncnc(C2CC2)c1-c1ncc2ccc(=O)n(Cc3ccc(-c4nc(C(F)(F)F)cn4CCO)cc3)c2n1 [Compound 60, 2-(4-cyclopropyl-6-methoxypyrimidin-5-yl)-8-({4-[1-(2-hydroxyethyl)-4-(trifluoromethyl)imidazol-2-yl]phenyl}methyl)pyrido[2,3-d]pyrimidin-7-one]",0.01 to 0.1 µM,0.01 to 0.1 µM,–,–,–
